Data published in PubChem BioAssay (NCI).
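How tested: cells in 96-well plates exposed to compound for 48 hours at five concentrations. The concentration for full growth arrest is given as TGI.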

Tests used:
Assay in all cases: DTP human tumour cell line panel, 48 h
[1] = system: HCT-116 colon
[2] = system: ACHN renal
[3] = system: NCI-H226 lung
[4] = system: MDA-MB-435
[5] = system: 786-0 renal
[6] = system: IGROV1 ovarian
[7] = system: HL-60(TB) leukemia
[8] = system: SF-268 CNS
[9] = system: HOP-92 NSCLC
[10] = system: HOP-62 NSCLC
[11] = system: KM12 colon
[12] = system: T-47D breast
[13] = system: CAKI-1 renal
[14] = system: NCI-H23 lung
[15] = system: SN12C renal
[16] = system: SK-OV-3 ovarian
[17] = system: MDA-MB-231 breast

Compound | TGI [1] | TGI [2] | TGI [3] | TGI [4] | TGI [5] | TGI [6] | TGI [7] | TGI [8] | TGI [9] | TGI [10] | TGI [11] | TGI [12] | TGI [13] | TGI [14] | TGI [15] | TGI [16] | TGI [17]
O=C(O)c1nc2ccccc2nc1Nc1ccc(F)cc1 | > 100 µM | > 100 µM | > 100 µM | > 100 µM | > 100 µM | > 100 µM | 78.8 µM | 99.2 µM | 85.9 µM | > 100 µM | > 100 µM | > 100 µM | 63.4 µM | > 100 µM |  |  | 
Cc1nc2ccccc2c(=O)n1NC(=S)Nc1cccc(Cl)c1 | > 100 µM | > 100 µM | > 100 µM |  | > 100 µM | > 100 µM | > 100 µM | > 100 µM | > 100 µM | > 100 µM | > 100 µM |  | > 100 µM | > 100 µM | > 100 µM | > 100 µM | 
Nc1ccc2cc3[nH]c4cc(N)ccc4c3nc2c1 | 0.456 µM | 0.257 µM | 1.8 µM | 1.23 µM | 1.39 µM |  |  | 1.8 µM | 0.737 µM | 1.13 µM | 1.7 µM | 4.33 µM | 0.636 µM | 0.893 µM | 1.17 µM | 2.03 µM | 2.09 µM
Cc1nc(-c2nc(C)c(C(=O)NN(C)C)s2)sc1C(=O)NN(C)C |  | > 100 µM | > 100 µM |  | > 100 µM | > 100 µM | > 100 µM | > 100 µM | > 100 µM | > 100 µM | > 100 µM |  | > 100 µM | > 100 µM | > 100 µM | > 100 µM | 
CC1(Br)C(=O)NC(=O)N(C2CC(N=[N+]=[N-])C(CO)O2)C1N=[N+]=[N-] (stereo not drawn) |  | > 100 µM |  |  | > 100 µM | > 100 µM | > 100 µM | > 100 µM | > 100 µM | > 100 µM | > 100 µM |  | > 100 µM | > 100 µM | > 100 µM | > 100 µM | 
CC(C)[Si](OC1=C(C(=O)N(C)c2ccccc2Cl)CCCC1)(C(C)C)C(C)C |  | 29.5 µM | 31 µM | 31.2 µM | 34.6 µM | 31.4 µM |  | 29.2 µM | 26.3 µM | 34.6 µM | 27.5 µM | 10.5 µM | 27.3 µM | 31.4 µM |  | 28.5 µM | 31.3 µM
COc1cc2nc(-c3ccccc3F)[nH]c(=O)c2cc1OC | > 100 µM | > 100 µM | > 100 µM |  | > 100 µM | > 100 µM | > 100 µM | > 100 µM | > 100 µM | > 100 µM | > 100 µM | > 100 µM | > 100 µM | > 100 µM | > 100 µM | > 100 µM | > 100 µM
Cc1ccc(C(CC(=O)C(C)(C)CN2CCCCC2)SCCS(=O)(=O)O)cc1 (stereo not drawn) | 59.2 µM | 70.8 µM | 70.5 µM | 57.7 µM | 59.9 µM | > 100 µM |  | > 100 µM | 42.3 µM | 78.8 µM | > 100 µM |  | 51 µM | 86.5 µM | 94.8 µM | 91 µM | > 100 µM
